The record followed here is US7410975B2, “Small molecule toll-like receptor (TLR) antagonists” (Coley Pharmaceutical Group, Inc., priority 2003, dated 2008).

Structures can show the parent of a compound that is named as a salt.

The target in the experiment is T1, human TLR3 (hTLR3) (Homo sapiens, UniProt O15455).
T1 construct: expressed in transfected cells
T1 sequence (O15455 24-904): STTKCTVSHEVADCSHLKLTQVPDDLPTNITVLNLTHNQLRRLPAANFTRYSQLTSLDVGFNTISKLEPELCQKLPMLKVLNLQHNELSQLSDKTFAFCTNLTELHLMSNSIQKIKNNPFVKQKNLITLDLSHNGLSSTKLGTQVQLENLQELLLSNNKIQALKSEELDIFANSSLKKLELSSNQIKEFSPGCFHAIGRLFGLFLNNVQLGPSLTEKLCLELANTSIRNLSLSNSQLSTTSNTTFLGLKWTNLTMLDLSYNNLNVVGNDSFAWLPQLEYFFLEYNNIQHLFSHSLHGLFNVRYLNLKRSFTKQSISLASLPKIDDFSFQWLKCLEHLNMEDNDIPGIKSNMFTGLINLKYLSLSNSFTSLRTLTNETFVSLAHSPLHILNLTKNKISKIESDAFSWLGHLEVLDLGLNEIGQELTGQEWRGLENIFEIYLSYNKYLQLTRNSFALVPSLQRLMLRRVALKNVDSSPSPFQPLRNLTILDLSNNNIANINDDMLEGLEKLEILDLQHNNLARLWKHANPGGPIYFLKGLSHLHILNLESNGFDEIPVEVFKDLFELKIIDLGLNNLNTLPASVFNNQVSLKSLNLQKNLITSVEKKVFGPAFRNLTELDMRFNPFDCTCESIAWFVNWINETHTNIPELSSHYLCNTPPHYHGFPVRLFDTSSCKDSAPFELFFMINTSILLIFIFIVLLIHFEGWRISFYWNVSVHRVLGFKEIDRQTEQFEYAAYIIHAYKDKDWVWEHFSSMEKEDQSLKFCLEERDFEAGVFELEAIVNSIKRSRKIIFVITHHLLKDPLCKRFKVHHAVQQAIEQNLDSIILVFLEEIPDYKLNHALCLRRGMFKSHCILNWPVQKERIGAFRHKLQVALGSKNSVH
In words: Antagonist screen, hTLR3-NFκB-293 cells, NF-κB-luciferase reporter, with EC50 of poly(I:C). The class given is cell-based. The settings on record: compound at 0.5, 5, 50 μg/ml; EC50 concentration of poly(I:C); 16 h; NF-κB-luciferase. On the procedure:
The method is described in greater detail as follows. The cells for each individual cell clone (hTLR3-NFκB-293, hTLR7-NFκB-293, hTLR8-NFκB-293 and hTLR9-NFκB-293) were counted and seeded one day before the stimulation at 1.5×10^4 cells per well in 96-well cell culture plates. To become adherent the cells were incubated after seeding overnight at 37° C. in 5% CO2 humidified air.
The screen for each compound was performed at the same time for all of the receptors TLR3, TLR7, TLR8 and TLR9. Up to fifteen test compounds, each assayed in duplicate at each of three different final concentrations (0.5 μg/ml, 5 μg/ml, and 50 μg/ml), were used for 16 h cell stimulation on a single multiwell culture plate. A 4× final concentration master plate was created to prepare the different test compounds before they were added to the cells.
Controls were added as duplicates individually for each cell clone on the cell culture plate. Positive controls were used as follows (final concentrations): 50 μg/ml poly(I:C) for hTLR3-NFκB-293; 8 μM resiquimod (R848) for hTLR7-NFκB-293; 30 μM R848 for hTLR8-NFκB-293; and 2.5 μM CpG-ODN 2006 for hTLR9-NFκB-293. Media alone was used as negative control. After addition of controls and small molecules, the cell clones were additionally stimulated with the EC50 concentration of the appropriate receptor-specific ligand.
The mean value of wells H2 and H5 (each with cells and EC50 concentration of the appropriate receptor-specific ligand) divided by the mean of wells H3 and H6 (each with cells alone) yielded the baseline response (i.e., fold induction of luciferase activity) to EC50 concentration of the appropriate receptor-specific ligand.
After 16 h stimulation the supernatant was removed and the cells treated with lysis buffer and stored at −80° C. before measuring.
For each screen result a graphical documentation was performed.
The baseline result (measured with addition of the EC50 concentration of the receptor-specific ligand) for each cell culture plate was measured as described above. Antagonistic effects were measured by down regulation compared to the baseline. Antagonists were scored as follows: • 13: compounds for which there was clear down regulation at 0.5 μg/ml, 5 μg/ml, and 50 μg/ml; • 12: compounds for which there was clear down regulation at 5 μg/ml and 50 μg/ml; • 11: compounds for which there was clear down regulation only at 50 μg/ml; • —: compounds for which there was no clear down regulation even at 50 μg/ml. Agonists
Results were expressed as fold induction over baseline luciferase activity measured in the absence of poly(I:C). […] Additional screening was performed in like manner using additional small molecules selected from another library or specifically prepared for this purpose. Scoring is reported as above but as applied to TLR3.
On to `COC(=O)C1=CO[C@@H](C)[C@@H]2CN3CCc4c([nH]c5ccccc45)[C@@H]3C[C@H]12` [compound 593, Tetrahydroalstonine], for which the “hTLR3 (inhibitory effect, antagonist score)” value was “— (compounds for which there was no clear down regulation even at 50 μg/ml)”. Take `CC[C@]12CCCN3CCc4c(n(c5ccccc45)C(=O)C1)[C@@H]32` [compound 607, Eburnamonine]: the “hTLR3 (inhibitory effect, antagonist score)” value was “— (compounds for which there was no clear down regulation even at 50 μg/ml)”. Take `Cc1nccc2c1[nH]c1cc(O)ccc12.Cl` [compound 612, Harmol hydrochloride monohydrate]: the “hTLR3 (inhibitory effect, antagonist score)” value is on record as 11 (compounds for which there was clear down regulation only at 50 μg/ml). Turning to `COc1ccc2c(c1)[nH]c1c(C)nccc12.Cl` [compound 613, harmine hydrochloride], the “hTLR3 (inhibitory effect, antagonist score)” value was 12 (compounds for which there was clear down regulation at 5 μg/ml and 50 μg/ml). For the molecule `Cc1c2ccncc2c(C)c2c1[nH]c1ccccc12` [compound 614, Ellipticine], the “hTLR3 (inhibitory effect, antagonist score)” value was 12 (compounds for which there was clear down regulation at 5 μg/ml and 50 μg/ml). For `Cc1nccc2c1[nH]c1ccccc12` [compound 620, Harmane hydrochloride], the “hTLR3 (inhibitory effect, antagonist score)” value is “— (compounds for which there was no clear down regulation even at 50 μg/ml)”.

Turning to `COc1ccc2[nH]c3c(c2c1)CCN=C3C` [compound 621, Methoxy-6-harmalan], the “hTLR3 (inhibitory effect, antagonist score)” value is given as “— (compounds for which there was no clear down regulation even at 50 μg/ml)”. Turning to `CC[C@]12CCCN3CCc4c(n(c5ccccc45)[C@](O)(C(=O)OC)C1)[C@@H]32` [compound 636, Epivincamine], the “hTLR3 (inhibitory effect, antagonist score)” value is 11 (compounds for which there was clear down regulation only at 50 μg/ml). In the case of `Cl.Cl.c1ccc2c3c([nH]c2c1)C1C2CCC(C4CCCNC42)N1CC3` (stereo not drawn) [compound 685, Nitrarine dihydorchloride], the “hTLR3 (inhibitory effect, antagonist score)” value is “— (compounds for which there was no clear down regulation even at 50 μg/ml)”. For the molecule `CN(C)CCCN1c2ccccc2Sc2ccccc21.Cl` [compound 693, Promazinehydrochloride], the “hTLR3 (inhibitory effect, antagonist score)” value is reported as “— (compounds for which there was no clear down regulation even at 50 μg/ml)”. For `CN1CCC(OC(c2ccccc2)c2ccccc2)CC1.Cl` [compound 707, Diphenylpyralinehydrochloride], the “hTLR3 (inhibitory effect, antagonist score)” value is given as “— (compounds for which there was no clear down regulation even at 50 μg/ml)”.

Turning to `CCCC(C(=O)OCCN(CC)CC)(c1ccccc1)c1ccccc1.Cl` [compound 778, Proadifen hydrochloride], the “hTLR3 (inhibitory effect, antagonist score)” value was 11 (compounds for which there was clear down regulation only at 50 μg/ml).

On to `Cl.Clc1ccc(C(OCCN2CCCCC2)c2ccccc2)cc1` (stereo not drawn) [compound 793, Cloperastinehydrochloride], for which the “hTLR3 (inhibitory effect, antagonist score)” value is given as 11 (compounds for which there was clear down regulation only at 50 μg/ml). Consider `COc1ccc2c(c1)N(CC(C)CN(C)C)c1ccccc1S2.O=C(O)/C=C\C(=O)O` (stereo not drawn) [compound 797, Methotrimeprazinemaleat salt], for which the “hTLR3 (inhibitory effect, antagonist score)” value is on record as 11 (compounds for which there was clear down regulation only at 50 μg/ml). On to `CS(=O)(=O)O.OC(CCN1CCCCC1)(c1ccccc1)c1ccccc1` [compound 799, Pridinolmethanesulfonate salt], for which the “hTLR3 (inhibitory effect, antagonist score)” value is listed as “— (compounds for which there was no clear down regulation even at 50 μg/ml)”. On to `C[N+]12CCC(CC1)C(OC(=O)C(O)(c1ccccc1)c1ccccc1)C2.[Br-]` (stereo not drawn) [compound 822, Clidinium bromide], for which the “hTLR3 (inhibitory effect, antagonist score)” value is given as “— (compounds for which there was no clear down regulation even at 50 μg/ml)”. As for `Clc1ccc(C(c2ccccc2Cl)C(Cl)Cl)cc1` (stereo not drawn) [compound 833, Mitotane], the “hTLR3 (inhibitory effect, antagonist score)” value is 11 (compounds for which there was clear down regulation only at 50 μg/ml). For `CCN(CC)C(C)CN1c2ccccc2Sc2ccccc21.Cl` (stereo not drawn) [compound 840, Ethopropazinehydrochloride] the value was “— (compounds for which there was no clear down regulation even at 50 μg/ml)”; for `CC(CN(C)C)CN1c2ccccc2Sc2ccccc21.CC(CN(C)C)CN1c2ccccc2Sc2ccccc21.O=C(O)C(O)C(O)C(=O)O` (stereo not drawn) [compound 842, Trimeprazine tartrate], “— (compounds for which there was no clear down regulation even at 50 μg/ml)”.

Consider `COC(=O)[C@H]1[C@H]2C[C@@H]3c4[nH]c5cc(OC)ccc5c4CCN3C[C@H]2C[C@@H](OC(=O)c2cc(OC)c(OC)c(OC)c2)[C@@H]1OC` [compound 875, Reserpine], for which the “hTLR3 (inhibitory effect, antagonist score)” value is “— (compounds for which there was no clear down regulation even at 50 μg/ml)”.

Turning to `OCc1cc2c(cn1)[nH]c1ccccc12` [compound 878, 3-hydroxymethyl-beta-carboline], the “hTLR3 (inhibitory effect, antagonist score)” value is listed as “— (compounds for which there was no clear down regulation even at 50 μg/ml)”. With `O=C(O)c1cc(C(c2ccc(O)c(C(=O)O)c2)C(Cl)(Cl)Cl)ccc1O` [compound 884], the “hTLR3 (inhibitory effect, antagonist score)” value is recorded as “— (compounds for which there was no clear down regulation even at 50 μg/ml)”.

As to `CN(CCO)C(=O)c1cccc2c1-c1ccccc1C2=O` [compound 890], the “hTLR3 (inhibitory effect, antagonist score)” value is recorded as “— (compounds for which there was no clear down regulation even at 50 μg/ml)”.

As for `COC(=O)c1cccc2c1-c1ccccc1/C2=N/O` [compound 904], the “hTLR3 (inhibitory effect, antagonist score)” value is 12 (compounds for which there was clear down regulation at 5 μg/ml and 50 μg/ml). In the case of `O=C(O)c1ccccc1NC1CC=CC2=C1C(=O)c1ccccc1C2=O` (stereo not drawn) [compound 917], the “hTLR3 (inhibitory effect, antagonist score)” value was 12 (compounds for which there was clear down regulation at 5 μg/ml and 50 μg/ml). Take `O=C(O)c1cccc2c1/C(=N/O)c1ccccc1-2` [compound 918]: the “hTLR3 (inhibitory effect, antagonist score)” value is recorded as “— (compounds for which there was no clear down regulation even at 50 μg/ml)”. In the case of `CCCCOC(=O)c1cc([N+](=O)[O-])cc2c1-c1cc(CO)c([NH+]([O-])O)cc1C2=C(C#N)C#N` (stereo not drawn) [compound 939], the “hTLR3 (inhibitory effect, antagonist score)” value is listed as 11 (compounds for which there was clear down regulation only at 50 μg/ml).

On to `O=C(O)c1cccc2c1-c1ccccc1/C2=N/Nc1ccc([N+](=O)[O-])cc1[N+](=O)[O-]` [compound 944], for which the “hTLR3 (inhibitory effect, antagonist score)” value is on record as 11 (compounds for which there was clear down regulation only at 50 μg/ml).

Consider `C=CCc1ccccc1OC1(c2ccccc2)OC(=O)c2ccccc21` (stereo not drawn) [compound 957], for which the “hTLR3 (inhibitory effect, antagonist score)” value is 12 (compounds for which there was clear down regulation at 5 μg/ml and 50 μg/ml).

Consider `COC(=O)c1ccc(C2CC(=O)Nc3c2ccc2ccccc32)cc1` (stereo not drawn) [compound 965], for which the “hTLR3 (inhibitory effect, antagonist score)” value was 12 (compounds for which there was clear down regulation at 5 μg/ml and 50 μg/ml).
